Results as given in US5609749A, “Electrochemical assay method with novel p-phenylenediamine compound” (Mochida Pharmaceutical Co., Ltd., priority 1993, dated 1997).

Experiments:
[1] = Measurement of vapor pressures (gas flow method); format: physicochemical; conditions: for vapor pressure: gas flow method
Method: Measurement of vapor pressures of p-phenylenediamine(PPD), N,N,N',N'-tetramethyl-p-phenylenediamine (TMPD), TEPD, TCPD, THEPD and TDHPD
The PPD(manufactured by Wakoh Junyaku K.K), TMPD (manufactured by Tokyo Kasei K.K), further, TEPD, TCPD, THEPD and TDHPO obtained in the course of the procedures of Synthesis Examples 1 to 4 were checked for their vapor pressures.
Vapor densities (amount of evaporation/volume) of the solid samples (PPD, TMPD, TEPD, TCPD, THEPD and TDHPD) were measured by contacting each sample heated to a predetermined temperature with a stream of carrier gas (nitrogen) and saturating the sample with vapor, and vapor pressures of TEPD and THEPD were calculated from the data on an assumption that the vapor follows the law of ideal gas (gas flow method). The vapor density was calculated by measuring evaporation rate (loss rate) of each sample using an electric balance, and the carrier gas flow rate using a flow meter.
The vapor pressure was calculated from the vapor density based on the following formula.
In the above formula, P represents vapor pressure (mmHg), k represents evaporation rate (mg/min), v represents carrier gas flow rate (ml/min), k/v represents vapor density (mg/ml), M represents molecular weight of each sample, π represents pressure of the system (mmHg) and V represents molar volume of carrier gas (l/mol).

Glucose oxidase (GOD) = target: T1, Glucose oxidase (GOD) (Aspergillus niger, UniProt P13006); assay: Electron transfer activity 1: GOD-glucose-compound, current at +300 mV; format: biochemical; conditions: +300 mV vs Ag/AgCl, pH 6.0
T1 construct: purchased Boehringer-Mannheim
Method: Measurement of electron transfer activities of TEPD, TCPD, THEPD, TDHPD, HTEPD, N,N'-BHPD, N,N-BHDPD, N,N'-BHDPD, and p-phenylenediamine derivatives having substituted amino group by reacting p-phenylenediamine with propyleneoxide--1
Glucose oxidase (GOD, manufactured by Boehringer-Mannheim) was dissolved in 0.1M phosphate buffer (pH 6.0) containing 0.1M NaCl to prepare 0M and 4.0×10^-4 M GOD solutions. Also, glucose (manufactured by Junsei Kagaku) was dissolved in the same buffer to prepare a 1.5M solution. In the same manner, each of the TEPD, TCPD, THEPD, TDHPD, HTEPD, N,N-BHDPD, N,N'-BHPD, N,N'-BHDPD, and p-phenylenediamine derivatives having substituted amino group by reacting p-phenylenediamine with propyleneoxide obtained in Synthesis Examples 1 to 9 was dissolved in the same buffer to prepare a 5.0×10^-3 M solution.
(§1) Each of these solutions was mixed in 0.1M phosphate buffer (pH 6.0) containing 0.1M NaCl in the following mixing ratio just before the measurement to prepare solutions of the following compositions A and B, and current was measured continuously in the presence (composition A) or absence (composition B) of GOD.
Using the same apparatus of Test Example 2, electric current was measured in the presence (composition A) or absence (composition B) of GOD for 10 minutes under application of potential of +300 mV (vs Ag/AgCl) to the working electrode.

[2] = target: T2, Horseradish peroxidase (HRPO) (Armoracia rusticana, UniProt P00433); assay: Electron transfer activity 2: HRPO-hydrogen peroxide-compound, current at -80 mV or -150 mV; format: biochemical; conditions: -80 mV or -150 mV vs Ag/AgCl, pH 6.0
T2 construct: purchased TOYOBO
T2 sequence (P00433 31-338 limits assumed): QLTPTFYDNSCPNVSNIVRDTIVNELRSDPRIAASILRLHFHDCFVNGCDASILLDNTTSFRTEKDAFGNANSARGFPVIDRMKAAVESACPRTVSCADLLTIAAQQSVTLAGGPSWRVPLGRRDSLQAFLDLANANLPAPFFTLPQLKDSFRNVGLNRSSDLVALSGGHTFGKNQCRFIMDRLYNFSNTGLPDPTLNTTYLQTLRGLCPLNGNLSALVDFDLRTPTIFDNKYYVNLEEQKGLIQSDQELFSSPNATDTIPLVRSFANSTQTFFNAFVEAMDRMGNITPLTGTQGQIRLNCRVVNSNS
Method: Measurement of electron transfer activities of TCPD, THEPD, TDHPD, HTEPD, N,N-BHDPD, N,N'-BHPD, N,N'-BHDPD, and p-phenylenediamine derivatives having substituted amino group by reacting p-phenylenediamine with propyleneoxide--2
Horseradish peroxidase (HRPO, manufactured by TOYOBO) was dissolved in 0.1M phosphate buffer (pH 6.0) containing 0.1M NaCl to prepare 0M and 5.0×10^-7 M HRPO solutions. Also, hydrogen peroxide (manufactured by Wako Pure Chemical Industries) was dissolved in the same buffer to prepare a 1.0×10^-1 M solution. In the same manner, each of the TCPD, THEPD, TDHPD, HTEPD, N,N-BHDPD, N,N'-BHPD, N,N'-BHDPD, and p-phenylenediamine derivatives having substituted amino group by reacting p-phenylenediamine with propyleneoxide obtained in Synthesis Examples 1 to 9 was dissolved in the same buffer to prepare a 5.0×10^-3 M solution.
as §1, with “B, and electric current was” for “B, and current was”, “B) of HRPO.” for “B) of GOD.”
Using the same apparatus of Test Example 2, electric current was measured in the presence (composition A) or absence (composition B) of HRPO for 5 or 10 minutes after application of potential of -80 mV (vs Ag/AgCl, the same shall apply hereinafter) in the case of TEPD, THEPD, and TDHPD, or -150 mV in the case of TCPD, HTEPD, N,N-BHDPD, N,N'-BHPD, N,N'-BHDPD, and p-phenylenediamine derivatives having substituted amino group by reacting p-phenylenediamine with propyleneoxide.

T1 sequence (P13006 17-605): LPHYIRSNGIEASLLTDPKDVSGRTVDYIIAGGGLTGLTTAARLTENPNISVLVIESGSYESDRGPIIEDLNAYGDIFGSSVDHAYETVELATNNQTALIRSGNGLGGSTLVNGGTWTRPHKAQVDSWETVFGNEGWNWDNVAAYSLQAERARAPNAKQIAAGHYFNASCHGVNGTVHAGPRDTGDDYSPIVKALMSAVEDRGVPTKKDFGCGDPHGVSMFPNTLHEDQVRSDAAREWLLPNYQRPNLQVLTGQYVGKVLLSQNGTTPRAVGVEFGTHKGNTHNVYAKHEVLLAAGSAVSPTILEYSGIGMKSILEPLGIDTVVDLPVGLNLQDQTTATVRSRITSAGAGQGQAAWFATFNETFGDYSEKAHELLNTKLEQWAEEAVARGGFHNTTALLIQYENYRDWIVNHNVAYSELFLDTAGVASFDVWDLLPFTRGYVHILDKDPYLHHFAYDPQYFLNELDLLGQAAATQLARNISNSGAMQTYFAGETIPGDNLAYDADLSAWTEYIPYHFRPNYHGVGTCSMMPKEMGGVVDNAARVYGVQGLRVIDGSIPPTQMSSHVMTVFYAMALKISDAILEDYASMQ

SMILES	vapor pressure ([1]; at 25° C.)	function as electron mediator between GOD and the electrode (Glucose oxidase (GOD))	function as electron mediator between HRPO and the electrode [2]	vapor pressure lower than that of TEPD ([1]; at 25° C.)	property in drying (freeze-drying, vacuum drying, air-drying) and stability of dried states ([1]; compared with PPD, TMPD and TEPD, concluded from vapor pressures)
CCN(CC)c1ccc(N(CC)CC)cc1.Cl.Cl [TEPD, N,N,N',N'-tetraethyl-p-phenylenediamine dihydrochloride, reference compound]	4.2×10^-4 mmHg	function as a reversible electron mediator between GOD and the electrode	function as a reversible electron mediator between HRPO and the electrode		
Cl.Cl.OCCN(CCO)c1ccc(N(CCO)CCO)cc1 [THEPD, N,N,N',N'-tetrakis-(2'-hydroxyethyl)-p-phenylenediamine dihydrochloride]	1.3×10^-6 mmHg	function as a reversible electron mediator between GOD and the electrode	function as a reversible electron mediator between HRPO and the electrode	about 300 times	superior to those of PPD, TMPD and TEPD
